In US20120245346A1, “MALEIC ACID SALT AND CRYSTAL THEREOF” (Kyorin Pharmaceutical Co., Ltd., priority 2009, published 2012):
Counter-ions that a name gives are not always drawn. Like-named read-outs stand apart in the source and are kept apart here.

Tests used:
Format in all cases: physicochemical
[1] = Solubility in water (Test Example 1, Stage 1)
Description: (§1) As the monomaleic acid salt, the sample in Example 5 was used in Stage 1 of Table 2, and the sample in Example 1 was used in Stage 2. The other samples in respective Stages of Table 2 were prepared in accordance with Patent Literature 1. The solubility and the stability as a drug substance of the respective samples were examined in Stage 1, and the crystallinity, phenomenon of crystal polymorphism, and presence or absence of adhesion water were examined in Stage 2.
Solubility: When the ratio of dissolved sample to water is 10 mg/mL or more, the solubility of the sample is represented as circle (◯), and when the ratio is 10 mg/mL or less, the solubility is represented as cross mark (x).

[2] = Stability as a drug substance, 2-week storage, HPLC assay of mainly degradation product (Test Example 1, Stage 1); settings: 2-week storage at 25° C./75% RT (closed system), increase in HPLC area % of mainly degradation product
Description: as §1
Stability as a drug substance: The sample after 2-week storage at 25° C./75% RT (closed system) was assayed by high-performance liquid chromatography (HPLC) under conditions described below. When the increase in area percentage (%) of a mainly degradation product is less than +0.5%, the stability of drug substances is represented as circle (◯), and when the increase is +0.5% or more, the stability of drug substances is represented as cross mark (x). In Test Example 2, the mainly degradation product was assayed by HPLC under the same conditions.
Conditions of HPLC in test of stability as a drug substance
column: Atlantis dC18, 2.1 mm φ×15 cm, 3 μm Measurement wavelength: 254 nm column temperature: 40° C. Flow rate: 0.2 mL/min Mobile phase A: 0.05% formic acid aqueous solution Mobile phase B: 0.05% formic acid-acetonitrile solution Transfer of mobile phases: The mixed ratio of mobile phase A and mobile phase B is changed as shown in Table 1 to control the concentration gradient.

[3] = Adhesion water by thermal analysis TG-DTA (Test Example 1, Stage 2); settings: for ADHESION WATER: decrease (%) in TG-DTA chart at about 50° C., Stage 2; for adhesion water (in words): TG-DTA decrease (%) at about 50° C.
Description: (§2) A sample (5 mg) was placed in a sample pan (a container made of aluminum), and thermal analysis TG-DTA of the sample was performed using EXSTAR 6000 thermal analyzer manufactured by Seiko Instruments Inc.
as §1
Adhesion water: When decrease (%) in the chart obtained from the thermal analysis TG-DTA is seen at about 50° C., the adhesion water is represented as “Presence,” and when the decrease (%) is not seen, the adhesion water is represented as “None.”

[4] = Crystallinity by powder x-ray diffraction (Test Example 1, Stage 2); settings: for crystallinity (in words): powder x-ray diffraction; for CRYSTALLINITY: powder x-ray diffraction peak intensity, Stage 2
Description: (§3) A sample (about 100 mg) was (lightly) pulverized in an agate mortar, and a packed section of a sample flat holder made of glass was filled with the pulverized sample. Powder x-ray diffraction of the sample was then performed using RINT2200 powder x-ray diffractometer (Rigaku Corporation).
as §1
Crystallinity: In powder x-ray diffraction, when a peak intensity is 5000 cps or more, the crystallinity is represented as “High,” and when it is 5000 cps or less, the crystallinity is represented as “Low.”

[5] = Development of crystal polymorphism by TG-DTA and powder x-ray diffraction (Test Example 1, Stage 2); settings: TG-DTA versus powder x-ray diffraction
Description: as §2, §3, §1
Development of crystal polymorphism: For crystals of the same salt, when the crystal structure shown by the thermal analysis TG-DTA is different from that shown by the powder x-ray diffraction, the development of crystal polymorphism is represented as “Presence”. On the other hand, when the thermal analysis TG-DTA and the powder x-ray diffraction show the same crystal structure, the development of crystal polymorphism is represented as “None.”

[6] = ratio of dissolved sample to water, Stage 1

SMILES	SOLUBILITY [1, 6]	STABILITY AS DRUG SUBSTANCE [2]	ADHESION WATER [3]	crystallinity (in words) [4]	CRYSTALLINITY [4]	PHENOMENON OF CRYSTAL POLYMORPHISM [5]	adhesion water (in words) [3]	also measured
CCc1cc(OC)cc2nc(-c3cccnc3N3CC[C@H](N(C)C)C3)oc(=O)c12 [½D-TARTARIC ACID, 2-[2-((S)-3-dimethylaminopyrrolidin-1-yl)pyridin-3-yl]-5-ethyl-7-methoxy-4H-benz[d][1,3]oxazin-4-one]	∘	x (when the increase is +0.5% or more)	PRESENCE					solubility in water ([1]; water, listed as 1/2D-tartaric acid salt): ≥ 10000 µg/mL
CCc1cc(OC)cc2nc(-c3cccnc3N3CC[C@H](N(C)C)C3)oc(=O)c12 [DIHYDROCHLORIDE, 2-[2-((S)-3-dimethylaminopyrrolidin-1-yl)pyridin-3-yl]-5-ethyl-7-methoxy-4H-benz[d][1,3]oxazin-4-one]	∘	x (when the increase is +0.5% or more)	PRESENCE					solubility in water ([1]; water): ≥ 10000 µg/mL
CCc1cc(OC)cc2nc(-c3cccnc3N3CC[C@H](N(C)C)C3)oc(=O)c12.Cl.O [MONOHYDROCHLORIDE, 2-[2-((S)-3-dimethylaminopyrrolidin-1-yl)pyridin-3-yl]-5-ethyl-7-methoxy-4H-benz[d][1,3]oxazin-4-one hydrochloride monohydrate]	∘	∘	PRESENCE	low crystallinity and high amorphous content	LOW	PRESENCE	adhesion water was present	SOLUBILITY ([1]; water, read-out: solubility in water): ≥ 10000 µg/mL
CCc1cc(OC)cc2nc(-c3cccnc3N3CC[C@H](N(C)C)C3)oc(=O)c12 [FREE FORM, 2-[2-((S)-3-dimethylaminopyrrolidin-1-yl)pyridin-3-yl]-5-ethyl-7-methoxy-4H-benz[d][1,3]oxazin-4-one]	x (when the ratio is 10 mg/mL or less)	∘			LOW	AMORPHOUS		solubility in water ([1]; water, listed as free base): ≤ 2000 µg/mL
CCc1cc(OC)cc2nc(-c3cccnc3N3CC[C@H](N(C)C)C3)oc(=O)c12 [MONOMALEIC ACID, 2-[2-((S)-3-dimethylaminopyrrolidin-1-yl)pyridin-3-yl]-5-ethyl-7-methoxy-4H-benz[d][1,3]oxazin-4-one monomaleate]				high crystallinity			adhesion water was not present	SOLUBILITY ([1]; ratio of dissolved sample to water, Stage 1, monomaleate): ∘; solubility in water ([1]; water, listed as monomaleic acid salt, monomaleate): ≥ 10000 µg/mL; STABILITY AS DRUG SUBSTANCE ([2]; monomaleate): ∘; CRYSTALLINITY ([4]; monomaleate): HIGH; PHENOMENON OF CRYSTAL POLYMORPHISM ([5]; monomaleate): PRESENCE; ADHESION WATER ([3]; monomaleate): NONE
CCc1cc(OC)cc2nc(-c3cccnc3N3CC[C@H](N(C)C)C3)oc(=O)c12 [¾L-TARTARIC ACID, 2-[2-((S)-3-dimethylaminopyrrolidin-1-yl)pyridin-3-yl]-5-ethyl-7-methoxy-4H-benz[d][1,3]oxazin-4-one]		∘	PRESENCE					SOLUBILITY ([1]; water, ratio of dissolved sample to water, Stage 1, read-out: SOLUBILITY): ≤ 10000 µg/mL
